Source: patent publication US10647680B2, “Urea compound, preparation method therefor and medical use thereof” (Ancureall Pharmaceutical (Shanghai) Co., Ltd., priority 2016, dated 2020)

Assays:
RS4; 11 (FLT3 wild type) = test: In vitro growth inhibition (GI50), RS4; 11; assay type: cell-based, human; conditions: Homo sapiens, RS4-11; Cell lines of leukemia; read-out: GI 50 RS4: 11 FLT3 (WT)
[1] = test system: OCI-AML3 (NPMc+ mutant type); test: In vitro growth inhibition (GI50), OCI-AML3; assay type: cell-based; conditions: Homo sapiens, OCI-AML-3; Cell lines of leukemia; read-out: GI 50 OCI- AML3 NPMc+
[2] = test system: MOLM-13 (FLT3 ITD+/− mutant type); test: In vitro growth inhibition (GI50), MOLM-13; assay type: cell-based, human; conditions: Homo sapiens, MOLM-13; Cell lines of leukemia; read-out: GI 50 MOLM-13 FLT3 (ITD+/−)
[3] = test system: RAMOS (positive expression of Brutons tyrosine protein kinase); test: In vitro growth inhibition (GI50), RAMOS; assay type: cell-based; conditions: Homo sapiens, Cell lines of leukemia, read-out: GI 50 Ramos BTK
[4] = test system: Kasumi-1 (c-Kit N822K mutant type); test: In vitro growth inhibition (GI50), Kasumi-1; assay type: cell-based; conditions: Homo sapiens, Cell lines of leukemia, read-out: GI 50 Kasumi-1 Kit (N822K)
How it was run: (§1)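 Cells in RPMI1640 with 10% FBS, seeded at 5–10×10^4 cells/mL, exposed next day to compound at 5,000 nM down to 0.01 nM (2- or 10-fold dilutions, ≤1% solvent) for 3–5 days at 37 °C. CCK8 absorbance at 450 nm, growth rate relative to pre-treatment and solvent controls, GI50 from concentration–growth curve.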

U937 (FLT3 wild-type) = test: In vitro growth inhibition (GI50), U937; assay type: cell-based; conditions: Homo sapiens, U-937; Cell lines of leukemia; read-out: GI 50 U937 FLT 3(WT)
[5] = test system: MV4-11 (FLT3 ITD+/+ mutant type); test: In vitro growth inhibition (GI50), MV4-11; assay type: cell-based, human; conditions: Homo sapiens, MV4-11; Cell lines of leukemia; read-out: GI 50 MV4-11 FLT3 (ITD +/+)
[6] = test system: K562 (FLT3 negative expression, positive expression of BCR-ABL fusion protein); test: In vitro growth inhibition (GI50), K562; assay type: cell-based; conditions: Homo sapiens, Cell lines of leukemia, read-out: GI 50 K562 BCR-ABL
[7] = test system: KG-1 (expressing FGFR1OP2-FGFR1 fusion protein); test: In vitro growth inhibition (GI50), KG-1; assay type: cell-based; conditions: Homo sapiens; Cell lines of leukemia; read-out: GI 50 KG-1 FGFR1OP 2-FGFR1
HL-60 (FLT3 wild type) = test: In vitro growth inhibition (GI50), HL-60; assay type: cell-based; conditions: Homo sapiens, Cell lines of leukemia, read-out: GI 50 HL60 FLT3 (WT)
How it was run: as §1

Row | GI50 (RS4; 11 (FLT3 wild type)) [µM] | GI50 [1] [µM] | GI50 [2] [µM] | GI50 [3] [µM] | GI50 (U937 (FLT3 wild-type)) [µM] | GI50 [5] [µM] | GI50 [6] [µM] | GI50 (HL-60 (FLT3 wild type)) [µM] | SMILES | GI50 [4] [µM] | GI50 [7] [µM]
1 | 0.01 to 0.1 | > 1 | 0.0001 to 0.001 | 0.1 to 1 | 0.1 to 1 | 0.0001 to 0.001 | > 1 | > 1 | CN1CCN(CCCOc2ccc3c(c2)ncn3-c2ccc(NC(=O)Nc3cc(C(C)(C)C)n[nH]3)cc2)CC1 [Compound 92, 1-(5-tert-butyl-2H-pyrazol-3-yl)-3-(4-{5-[3-(4-methyl-piperazin-1-yl)-propoxyl]-benzimidazol-1-yl}-phenyl)-urea] | > 1 | > 1
2 | > 1 | > 1 | 0.001 to 0.01 | > 1 | > 1 | 0.001 to 0.01 | > 1 | > 1 | CC(C)(C)c1cc(NC(=O)Nc2ccc(-n3cnc4cc(OCc5cccc(F)c5)ccc43)cc2)[nH]n1 [Compound 93, 1-(5-tert-butyl-2H-pyrazol-3-yl)-3-{4-[5-(3-fluoro-benzyloxy)-benzimidazol-1-yl]-phenyl]-urea] | > 1 | > 1
3 | > 1 | > 1 | 0.001 to 0.01 | > 1 | > 1 | 0.001 to 0.01 | > 1 | > 1 | CC(C)(C)c1cc(NC(=O)Nc2ccc(-n3cnc4cc(Oc5nsnc5N5CCOCC5)ccc43)cc2)[nH]n1 [Compound 95, 1-(5-tert-butyl-2H-pyrazol-3-yl)-3-{4-[5-(4-morpholin-4-yl-[1,2,5]thiadiazol-3-yloxy)-benzimidazol-1-yl]-phenyl}-urea] | > 1 | > 1
4 | > 1 | > 1 | 0.001 to 0.01 | > 1 | > 1 | 0.001 to 0.01 | > 1 | > 1 | CNC(=O)c1cc(Oc2ccc3c(c2)ncn3-c2ccc(NC(=O)Nc3cc(C(C)(C)C)n[nH]3)cc2)ccn1 [Compound 96, 4-(1-{4-[3-(5-tert-butyl-2H-pyrazol-3-yl)-carbamido]-phenyl}-1H-benzimidazol-5-yloxy)-pyridin-2-carboxymethylamine] | > 1 | > 1
5 | > 1 | > 1 | 0.001 to 0.01 | > 1 | > 1 | 0.001 to 0.01 | > 1 | > 1 | Cc1cc(F)cc2ncn(-c3ccc(NC(=O)Nc4cc(C(C)(C)C)n[nH]4)cc3)c12 [Compound 97, 1-(5-tert-butyl-2H-pyrazol-3-yl)-3-[4-(5-fluoro-7-methyl-benzimidazol-1-yl)-phenyl]-urea] | > 1 | > 1
6 | > 1 | > 1 | 0.0001 to 0.001 | > 1 | > 1 | 0.0001 to 0.001 | > 1 | > 1 | COc1cc2ncn(-c3ccc(NC(=O)Nc4cc(C(C)(C)C)n[nH]4)cc3)c2cc1OC [Compound 99, 1-(5-tert-butyl-2H-pyrazol-3-yl)-3-[4-(5,6-dimethoxyl-benzimidazol-1-yl)-phenyl]-urea] | > 1 | > 1
7 | > 1 | > 1 | 0.0001 to 0.001 | > 1 | > 1 | 0.0001 to 0.001 | > 1 | > 1 | Cn1nc(C(C)(C)C)cc1NC(=O)Nc1ccc(-n2cnc3ccccc32)cc1 [Compound 100, 1-(4-benzimidazol-1-yl-phenyl)-3-(5-tert-butyl-2-methyl-2H-pyrazol-3-yl)-urea] | > 1 | > 1
8 | > 1 | > 1 | 0.001 to 0.01 | > 1 | > 1 | 0.001 to 0.01 | > 1 | > 1 | CC(C)(C)c1cc(NC(=O)Nc2ccc(-n3cnc4ccccc43)cc2)n(CCO)n1 [Compound 103, 1-(4-benzimidazol-1-yl-phenyl)-3-[5-tert-butyl-2-(2-hydroxy-ethyl)-2H-pyrazol-3-yl]-urea] | > 1 | > 1
9 | > 1 | > 1 | 0.0001 to 0.001 | > 1 | > 1 | 0.0001 to 0.001 | > 1 | > 1 | CC(C)(C)c1cc(NC(=O)Nc2ccc(-n3cnc4ccccc43)cc2)n(-c2ccccc2)n1 [Compound 104, 1-(4-benzimidazol-1-yl-phenyl)-3-(5-tert-butyl-2-phenyl-2H-pyrazol-3-yl)-urea] | > 1 | > 1
10 | > 1 | > 1 | 0.01 to 0.1 | > 1 | > 1 | 0.01 to 0.1 | > 1 | > 1 | Cc1ccc(-n2nc(C(C)(C)C)cc2NC(=O)Nc2ccc(-n3cnc4ccccc43)cc2)cc1 [Compound 105, 1-(4-benzimidazol-1-yl-phenyl)-3-(5-tert-butyl-2-p-tolyl-2H-pyrazol-3-yl)-urea] | > 1 | > 1
11 | > 1 | > 1 | 0.01 to 0.1 | > 1 | > 1 | 0.01 to 0.1 | > 1 | > 1 | COc1ccc(-n2nc(C(C)(C)C)cc2NC(=O)Nc2ccc(-n3cnc4ccccc43)cc2)cc1 [Compound 106, 1-(4-benzimidazol-1-yl-phenyl)-3-[5-tert-butyl-2-(4-methoxyl-phenyl)-2H-pyrazol-3-yl]-urea] | > 1 | > 1
12 | > 1 | > 1 | 0.01 to 0.1 | > 1 | > 1 | 0.01 to 0.1 | > 1 | > 1 | CC(C)(C)c1cc(NC(=O)Nc2ccc(-n3cnc4ccccc43)cc2)n(-c2ccc(OC(F)(F)F)cc2)n1 [Compound 107, 1-(4-benzimidazol-1-yl-phenyl)-3-[5-tert-butyl-2-(4-trifluoromethoxy-phenyl)-2H-pyrazol-3-yl]-urea] | > 1 | > 1
13 | 0.1 to 1 | 0.1 to 1 | 0.01 to 0.1 | > 1 | > 1 | 0.01 to 0.1 | 0.1 to 1 | > 1 | CC(C)(C)c1cc(NC(=O)Nc2ccc(-n3cnc4ccccc43)cc2)n(-c2ccc(F)cc2)n1 [Compound 108, 1-(4-benzimidazol-1-yl-phenyl)-3-[5-tert-butyl-2-(4-fluoro-phenyl)-2H-pyrazol-3-yl]-urea] | > 1 | > 1
14 | 0.1 to 1 | > 1 | 0.001 to 0.01 | > 1 | > 1 | 0.001 to 0.01 | 0.1 to 1 | > 1 | CC(C)(C)c1cc(NC(=O)Nc2ccc(-n3cnc4ccccc43)cc2)n(-c2ccccc2F)n1 [Compound 109, 1-(4-benzimidazol-1-yl-phenyl)-3-[5-tert-butyl-2-(2-fluoro-phenyl)-2H-pyrazol-3-yl]-urea] | > 1 | > 1
15 | > 1 | > 1 | 0.01 to 0.1 | > 1 | > 1 | 0.01 to 0.1 | > 1 | > 1 | CC(C)(C)c1cc(NC(=O)Nc2ccc(-n3cnc4ccccc43)cc2)n(-c2ccccn2)n1 [Compound 110, 1-(4-benzimidazol-1-yl-phenyl)-3-(5-tert-butyl-2-pyridin-2-yl-2H-pyrazol-3-yl)-urea] | > 1 | > 1

Row | SMILES | GI50 (RS4; 11 (FLT3 wild type)) [µM] | GI50 [1] [µM] | GI50 [2] [µM] | GI50 [3] [µM] | GI50 (U937 (FLT3 wild-type)) [µM] | GI50 [5] [µM] | GI50 [6] [µM] | GI50 (HL-60 (FLT3 wild type)) [µM] | GI50 [4] [µM] | GI50 [7] [µM]
16 | CC(C)(C)c1cc(NC(=O)Nc2ccc(-n3cnc4cc(OCCCCc5nnnn5C5CCCCC5)ccc43)cc2)[nH]n1 [Compound 94, 1-(5-tert-butyl-2H-pyrazol-3-yl)-3-(4-{5-[4-(1-cyclohexyl-1H-tetrazol-5-yl)-butoxy]-benzimidazol-1-yl}-phenyl)-urea] | > 1 | > 1 | 0.001 to 0.01 | > 1 | > 1 | 0.001 to 0.01 | > 1 | > 1 | > 1 | > 1
